Several values for one entry are separate records, joined by “and”; a condition that tells them apart may be missing. Equal entries are not always repeated. Inconclusive results and toxic doses are left out. Cut-off read from the data, not from the text of the source: active = T/C of 150% or more; inactive = T/C below 125%.
System: L1210 leukemia ip in BDF1 mice, survival T/C
Assay: NCI In Vivo Anticancer Drug Screen. Data for tumor model L1210 Leukemia (intraperitoneal) in B6D2F1 (BDF1) mice
Settings: endpoint: mean survival time, higher = longer survival
Method in brief: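 Ratio derived from survival: compound-dosed mice over vehicle-dosed mice, all bearing a transplantable tumor.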

[1] = dose: 100.0 mg/kg/injection, schedule: Q04DX002 (ip), vehicle: Klucel (hydroxypropylcellulose) (HPC)
[2] = dose: 200.0 mg/kg/injection, schedule: Q04DX002 (ip), vehicle: Klucel (hydroxypropylcellulose) (HPC)
[3] = dose: 400.0 mg/kg/injection, schedule: Q04DX002 (ip), vehicle: Klucel (hydroxypropylcellulose) (HPC)
[4] = dose: 100.0 mg/kg/injection, schedule: Q01DX009 (ip), vehicle: Klucel (hydroxypropylcellulose) (HPC)
[5] = dose: 200.0 mg/kg/injection, schedule: Q01DX009 (ip), vehicle: Klucel (hydroxypropylcellulose) (HPC)
[6] = dose: 400.0 mg/kg/injection, schedule: Q01DX009 (ip), vehicle: Klucel (hydroxypropylcellulose) (HPC)
[7] = dose: 100.0 mg/kg/injection, schedule: Q01DX009 (ip), vehicle: saline with Tween-80
[8] = dose: 100.0 mg/kg/injection, schedule: Q04DX003 (ip), vehicle: saline with Tween-80
[9] = dose: 200.0 mg/kg/injection, schedule: Q01DX009 (ip), vehicle: saline with Tween-80
[10] = dose: 200.0 mg/kg/injection, schedule: Q04DX003 (ip), vehicle: saline with Tween-80
[11] = dose: 400.0 mg/kg/injection, schedule: Q04DX003 (ip), vehicle: saline with Tween-80
[12] = dose: 100.0 mg/kg/injection, schedule: Q01DX001 (ip), vehicle: saline
[13] = dose: 200.0 mg/kg/injection, schedule: Q01DX001 (ip), vehicle: saline
[14] = dose: 400.0 mg/kg/injection, schedule: Q01DX001 (ip), vehicle: saline
[15] = dose: 100.0 mg/kg/injection, schedule: Q04DX003 (ip), vehicle: Klucel (hydroxypropylcellulose) (HPC)
[16] = dose: 200.0 mg/kg/injection, schedule: Q04DX003 (ip), vehicle: Klucel (hydroxypropylcellulose) (HPC)
[17] = dose: 400.0 mg/kg/injection, schedule: Q04DX003 (ip), vehicle: Klucel (hydroxypropylcellulose) (HPC)
[18] = dose: 50.0 mg/kg/injection, schedule: Q01DX001 (ip), vehicle: saline

Measured: T/C

COC(=O)C(Cc1ccccc1)NC(=O)C(C)NC(=O)OCc1ccccc1 (centres undefined)
inactive: [1] 105 % of control | dose: 130.0 mg/kg/injection, schedule: Q04DX002 (ip), vehicle: Klucel (hydroxypropylcellulose) (HPC) 100 % of control and 86 % of control | [2] 100 % of control | dose: 300.0 mg/kg/injection, schedule: Q04DX002 (ip), vehicle: Klucel (hydroxypropylcellulose) (HPC) 100 % of control and 103 % of control | [3] 108 % of control

COc1ccc(NC(=O)Oc2ccc(NC(C)=O)cc2)c(OC)c1
inactive: [4] 95 % of control | [5] 97 % of control | [6] 92 % of control

CCCC(CC)C(=O)OCCCSCCCOC(=O)C(CC)CCC (centres undefined)
inactive: dose: 222.0 mg/kg/injection, schedule: Q01DX Z (ip), vehicle: methylcellulose (MC) 92 % of control | dose: 333.0 mg/kg/injection, schedule: Q01DX Z (ip), vehicle: methylcellulose (MC) 94 % of control | dose: 500.0 mg/kg/injection, schedule: Q01DX Z (ip), vehicle: methylcellulose (MC) 87 % of control

CCCCCCCCCCCCCCCCCCNC(=O)Nc1ccccc1CC
inactive: dose: 100.0 mg/kg/injection, schedule: Q01DX009 (sc), vehicle: olive oil, sesame oil, peanut oil 104 % of control | dose: 100.0 mg/kg/injection, schedule: Q04DX003 (sc), vehicle: olive oil, sesame oil, peanut oil 98 % of control | dose: 200.0 mg/kg/injection, schedule: Q01DX009 (sc), vehicle: olive oil, sesame oil, peanut oil 104 % of control | dose: 200.0 mg/kg/injection, schedule: Q04DX003 (sc), vehicle: olive oil, sesame oil, peanut oil 94 % of control | dose: 400.0 mg/kg/injection, schedule: Q01DX009 (sc), vehicle: olive oil, sesame oil, peanut oil 106 % of control | dose: 400.0 mg/kg/injection, schedule: Q04DX003 (sc), vehicle: olive oil, sesame oil, peanut oil 109 % of control

COc1ccc(C(=O)N/N=C/c2ccc(Cl)cc2Cl)cc1
inactive: [4] 102 % of control | [5] 94 % of control | [6] 91 % of control

CC(C)=CCC/C(C)=C/CN1C(=O)CC(C)=C(C)C1=O
inactive: [7] 97 % of control | [8] 95 % of control | [9] 95 % of control | [10] 104 % of control | dose: 400.0 mg/kg/injection, schedule: Q01DX009 (ip), vehicle: saline with Tween-80 95 % of control | [11] 95 % of control

Oc1ccc(Nc2ccccc2)cc1
inactive: [12] 92 % of control | dose: 100.0 mg/kg/injection, schedule: Q04DX003 (ip), vehicle: saline 101 % of control | [13] 110 % of control | dose: 200.0 mg/kg/injection, schedule: Q04DX003 (ip), vehicle: saline 101 % of control | [14] 105 % of control | dose: 400.0 mg/kg/injection, schedule: Q04DX003 (ip), vehicle: saline 95 % of control

N#CC(C#N)=Cc1cccc2ccccc12
inactive: dose: 50.0 mg/kg/injection, schedule: Q01DX009 (ip), vehicle: Klucel (hydroxypropylcellulose) (HPC) 97 % of control and 91 % of control | [4] 95 % of control and 103 % of control | [15] 102 % of control | [5] 96 % of control and 105 % of control | [16] 97 % of control | [17] 103 % of control

CCC/C(C)=N\O
inactive: [8] 102 % of control | [10] 111 % of control | [11] 100 % of control

CSc1ccc(NC(=O)NCCCCCCNC(=O)Nc2ccc(SC)cc2)cc1
inactive: dose: 50.0 mg/kg/injection, schedule: Q01DX009 (ip), vehicle: saline with Tween-80 93 % of control | [7] 96 % of control | [9] 90 % of control

CC(=O)C(C(C)=O)C(c1ccccc1)C(C(C)=O)C(C)=O
inactive: [4] 94 % of control | [5] 91 % of control

C/C(C(=O)O)=C(/Cl)c1c(C)cc(C)c(Br)c1C
inactive: dose: 100.0 mg/kg/injection, schedule: Q01DX001 (ip), vehicle: gum acacia 89 % of control | dose: 100.0 mg/kg/injection, schedule: Q01DX009 (ip), vehicle: gum acacia 108 % of control | dose: 200.0 mg/kg/injection, schedule: Q01DX001 (ip), vehicle: gum acacia 93 % of control | dose: 200.0 mg/kg/injection, schedule: Q01DX009 (ip), vehicle: gum acacia 105 % of control | dose: 400.0 mg/kg/injection, schedule: Q01DX001 (ip), vehicle: gum acacia 91 % of control

O=C1CNC(c2ccccc2)c2cc(Cl)ccc2N1 (centres undefined)
inactive: dose: 25.0 mg/kg/injection, schedule: Q01DX009 (ip), vehicle: Klucel (hydroxypropylcellulose) (HPC) 101 % of control | [4] 92 % of control | [5] 87 % of control

NC(CSS(=O)(=O)O)=NCCc1ccc(O)cc1
inactive: dose: 25.0 mg/kg/injection, schedule: Q04DX002 (ip), vehicle: Klucel (hydroxypropylcellulose) (HPC) 110 % of control | [1] 90 % of control and 91 % of control

CN(C)c1ccc(C(C#N)C(C#N)c2ccccc2)cc1 (centres undefined)
inactive: dose: 50.0 mg/kg/injection, schedule: Q01DX001 (ip), vehicle: Klucel (hydroxypropylcellulose) (HPC) 88 % of control | dose: 100.0 mg/kg/injection, schedule: Q01DX001 (ip), vehicle: Klucel (hydroxypropylcellulose) (HPC) 88 % of control | dose: 200.0 mg/kg/injection, schedule: Q01DX001 (ip), vehicle: Klucel (hydroxypropylcellulose) (HPC) 88 % of control

CN(C)c1ccc([N+](=O)[O-])cc1[N+](=O)[O-]
inactive: dose: 100.0 mg/kg/injection, schedule: Q01DX001 (ip), vehicle: other 111 % of control | dose: 200.0 mg/kg/injection, schedule: Q01DX001 (ip), vehicle: other 101 % of control

CC(=O)c1ccc(S(=O)(=O)Cl)cc1
inactive: [18] 113 % of control | [12] 90 % of control | [13] 104 % of control

CCCCCCCCCCCCCC(C)NCc1ccccc1 (centres undefined)
inactive: [18] 97 % of control | [12] 88 % of control

Cn1c(=O)cc(CNc2ccc(-c3ccccc3)cc2)c2ccccc21
inactive: [12] 92 % of control | [13] 90 % of control | [14] 88 % of control

CNC(=O)C1C(c2ccccc2)C1c1ccccc1 (centres undefined)
inactive: [1] 102 % of control | [2] 97 % of control | [3] 94 % of control

O=c1c2c(c(=O)c(=O)c1=O)Nc1ccccc1N2
inactive: [12] 98 % of control | [13] 104 % of control | [14] 98 % of control

Cc1ccc(/C(=C\c2ccccc2)C(=O)c2ccccc2)cc1
inactive: [4] 95 % of control | [15] 93 % of control | [5] 92 % of control | [16] 93 % of control | [6] 95 % of control | [17] 101 % of control

CC(=O)C1=C(c2ccccc2)NC(=O)NC1c1ccco1 (centres undefined)
inactive: [8] 94 % of control | [10] 90 % of control | [11] 92 % of control

CC(C)CC(N)C(=O)NCCCCCCNCCCCCCNC(=O)C(N)CC(C)C (centres undefined)
inactive: [18] 103 % of control | [12] 105 % of control | [13] 102 % of control

CC1(C)CC(=O)C=C(OCCc2ccccc2)C1
inactive: [8] 96 % of control | [10] 94 % of control | [11] 91 % of control

CC1CN=C(c2ccc(NC(=O)Nc3ccc(C4=NCC(C)N4)cc3)cc2)N1 (centres undefined)
inactive: dose: 0.62 mg/kg/injection, schedule: Q01DX Z (ip), vehicle: saline 109 % of control | dose: 1.25 mg/kg/injection, schedule: Q01DX Z (ip), vehicle: saline 114 % of control | dose: 2.5 mg/kg/injection, schedule: Q01DX Z (ip), vehicle: saline 118 % of control | dose: 5.0 mg/kg/injection, schedule: Q01DX Z (ip), vehicle: saline 111 % of control

CC/C(=N/O)c1ccccc1
inactive: dose: 100.0 mg/kg/injection, schedule: Q04DX003 (ip), vehicle: saline sonified 110 % of control | dose: 200.0 mg/kg/injection, schedule: Q04DX003 (ip), vehicle: saline sonified 95 % of control | dose: 400.0 mg/kg/injection, schedule: Q04DX003 (ip), vehicle: saline sonified 93 % of control

CCCN(CCC)CCCCN(CCC)CCCN(CCC)CCC
inactive: [12] 107 % of control | [13] 94 % of control

CCC1(C)C(=O)c2ccccc2N(C)C1=O (centres undefined)
inactive: dose: 100.0 mg/kg/injection, schedule: Q04DX002 (ip), vehicle: saline with Tween-80 104 % of control | dose: 200.0 mg/kg/injection, schedule: Q04DX002 (ip), vehicle: saline with Tween-80 104 % of control

O=Cc1ccc(OCc2ccccc2)cc1
inactive: [1] 96 % of control | [2] 96 % of control | [3] 92 % of control
